The compounds below were run on HCV 1b-Con-1 replicon (assay: HCV 1b-Con-1 replicon assay (luciferase reporter gene, HuH-7 cells)). Conditions: Hepatitis C virus, Huh-7, luciferase reporter gene activity in the replicon, in the presence of 5% FBS.
Format: cell-based, Hepatitis C virus (HCV) genotype 1b-Con1

First: COC(=O)N1CCOC[C@H]1C(=O)N1CCC[C@H]1C(=O)Nc1ccc(CN(Cc2ccc(NC(=O)[C@@H]3CCCN3C(=O)[C@@H]3COCCN3C(=O)OC)cc2)c2ccc(F)cc2)cc1 [Example 144, dimethyl (3S,3′S)-3,3′-{[(4-fluorophenyl)imino]bis[methanediylbenzene-4,1-diylcarbamoyl(2S)pyrrolidine-2,1-diylcarbonyl]}dimorpholine-4-carboxylate]
Second: COC(=O)N[C@@H](C)C(=O)N1CCC[C@H]1C(=O)Nc1ccc(CN(Cc2ccc(NC(=O)[C@@H]3CCCN3C(=O)[C@H](C)NC(=O)OC)cc2)c2ccc(F)cc2)cc1 [Example 15]
The EC50 of the first is higher: 100 to 250 nM for the first, 1 to 10 nM for the second. The second is the more potent here.

First: COC(=O)N[C@H](C(=O)N1CCC[C@H]1C(=O)Nc1ccc(CN(Cc2ccc3[nH]c([C@@H]4CCCN4C(=O)[C@@H](NC(=O)OC)C(C)C)nc3c2)c2ccccc2)cc1)C(C)C [Example 20]
Second: COC(=O)N[C@H](C(=O)N1CCC[C@H]1C(=O)Nc1ccc(CN(Cc2ccc(NC(=O)[C@@H]3CCCN3C(=O)[C@@H](NC(=O)OC)[C@@H](C)O)cc2)c2ccccc2)cc1)[C@@H](C)O [Example 25, dimethyl[(phenylimino)bis{methanediylbenzene-4,1-diylcarbamoyl(2S)pyrrolidine-2,1-diyl[(2S,3R)-3-hydroxy-1-oxobutane-1,2-diyl]}]biscarbamate]
The EC50 of the first is lower: < 1 nM for the first, 1 to 10 nM for the second.

CCN(CC)[C@@H](C(=O)N1CCC[C@H]1c1nc2cc(CN(Cc3ccc4[nH]c([C@@H]5CCCN5C(=O)[C@@H](c5ccccc5)N(CC)CC)nc4c3)c3ccc(F)cc3)ccc2[nH]1)c1ccccc1 [Example 95, N,N-bis[(2-{(2S)-1-[(2R)-2-(diethylamino)-2-phenylacetyl]pyrrolidin-2-yl}-1H-benzimidazol-5-yl)methyl]-4-fluoroaniline] and O=C([C@@H](c1ccccc1)N1CCCC1)N1CCC[C@H]1c1nc2cc(CN(Cc3ccc4[nH]c([C@@H]5CCCN5C(=O)[C@@H](c5ccccc5)N5CCCC5)nc4c3)c3ccccc3)ccc2[nH]1 [Example 66, N,N-bis[(2-{(2S)-1-[(2R)-2-phenyl-2-pyrrolidin-1-ylacetyl]pyrrolidin-2-yl}-1H-benzimidazol-5-yl)methyl]aniline] cannot be ordered by EC50: < 1 nM for the first, < 1 nM for the second.

O=C(Nc1ccc(CN(Cc2ccc(NC(=O)[C@@H]3CCCN3C(=O)[C@@H](c3ccccc3)N3CCOCC3)cc2)c2ccccc2)cc1)[C@@H]1CCCN1C(=O)[C@@H](c1ccccc1)N1CCOCC1 [Example 57, (2S,2′S)-N,N′-[(phenylimino)bis(methanediylbenzene-4,1-diyl)]bis{1-[(2R)-2-morpholin-4-yl-2-phenylacetyl]pyrrolidine-2-carboxamide}] and O=C(Nc1ccc(CN(Cc2ccc(NC(=O)[C@@H]3CCCN3C(=O)[C@@H](c3ccccc3)N3CCCCC3)cc2)c2ccc(F)cc2)cc1)[C@@H]1CCCN1C(=O)[C@@H](c1ccccc1)N1CCCCC1 [Example 92, (2S,2′S)-N,N′-{[(4-fluorophenyl)imino]bis(methanediylbenzene-4,1-diyl)}bis{1-[(2R)-2-phenyl-2-piperidin-1-ylacetyl]pyrrolidine-2-carboxamide}] cannot be ordered by EC50: < 1 nM for the first, < 1 nM for the second.

First: COC(=O)N[C@H](C(=O)N1CCC[C@H]1/C=C/c1ccc(CN(Cc2ccc(NC(=O)[C@@H]3CCCN3C(=O)[C@@H](NC(=O)OC)C(C)(C)C)cc2)c2ccccc2)cc1)C(C)(C)C [Example 149, N-(methoxycarbonyl)-3-methyl-L-valyl-N-(4-{[{4-[(E)-2-{(2S)-1-[N-(methoxycarbonyl)-3-methyl-L-valyl]pyrrolidin-2-yl}ethenyl]benzyl}(phenyl)amino]methyl}phenyl)-L-prolinamide]
Second: COC(=O)N[C@H](C(=O)N1CCC[C@H]1C(=O)Nc1ccc(CN(Cc2ccc(NC(=O)[C@@H]3CCCN3C(=O)[C@@H](NC(=O)OC)C(C)(C)O)cc2)c2ccccc2)cc1)C(C)(C)O [Example 28, dimethyl [(phenylimino)bis{methanediylbenzene-4,1-diylcarbamoyl(2S)pyrrolidine-2,1-diyl[(2S)-3-hydroxy-3-methyl-1-oxobutane-1,2-diyl]}]biscarbamate]
The EC50 of the first is higher: 10 to 100 nM for the first, < 1 nM for the second. The second is the more potent here.

COC(=O)N[C@H](C(=O)N1CCC[C@H]1C(=O)Nc1ccc(CN(Cc2ccc(NC(=O)[C@@H]3CCCN3C(=O)[C@@H](c3ccccc3)N3CCCCC3)cc2)c2ccc(F)cc2)cc1)[C@H]1CCOC1 [Example 114, methyl {(1S)-2-{(2S)-2-[(4-{[(4-fluorophenyl){4-[({(2S)-1-[(2R)-2-phenyl-2-piperidin-1-ylacetyl]pyrrolidin-2-yl}carbonyl)amino]benzyl}amino]methyl}phenyl)carbamoyl]pyrrolidin-1-yl}-2-oxo-1-[(3R)-tetrahydrofuran-3-yl]ethyl}carbamate] and COC(=O)N[C@H](C(=O)N1CCC[C@H]1C(=O)Nc1ccc(CN(Cc2ccc(NC(=O)[C@@H]3CCCN3C(=O)[C@@H](c3ccccc3)N3CCCC3)cc2)c2ccccc2)cc1)C(C)(C)C [Example 56, N-(methoxycarbonyl)-3-methyl-L-valyl-N-[4-({phenyl[4-({1-[(2R)-2-phenyl-2-pyrrolidin-1-ylacetyl]-L-prolyl}amino)benzyl]amino}methyl)phenyl]-L-prolinamide] cannot be ordered by EC50: < 1 nM for the first, < 1 nM for the second.

CCN(CC)[C@@H](C(=O)N1CCC[C@H]1C(=O)Nc1ccc(CN(Cc2ccc(NC(=O)[C@@H]3CCCN3C(=O)[C@@H](NC(=O)OC)C(C)(C)C)cc2)c2ccc(F)cc2)cc1)c1ccccc1 [Example 82, N-(methoxycarbonyl)-3-methyl-L-valyl-N-[4-({[4-({1-[(2R)-2-(diethylamino)-2-phenylacetyl]-L-prolyl}amino)benzyl](4-fluorophenyl)amino}methyl)phenyl]-L-prolinamide] and COC(=O)N[C@H](C(=O)N1CCC[C@H]1C(=O)Nc1ccc(CN(Cc2ccc(NC(=O)[C@@H]3CCCN3C(=O)[C@H](NC(=O)[C@@H]3CCCO3)c3ccccc3)cc2)c2ccccc2)cc1)C(C)(C)C [Example 87, N-(methoxycarbonyl)-3-methyl-L-valyl-N-[4-({phenyl[4-({1-[(2R)-2-phenyl-2-{[(2S)-tetrahydrofuran-2-ylcarbonyl]amino}acetyl]-L-prolyl}amino)benzyl]amino}methyl)phenyl]-L-prolinamide] cannot be ordered by EC50: < 1 nM for the first, < 1 nM for the second.

Compared with COCCN(Cc1ccc(NC(=O)[C@@H]2CCCN2C(=O)[C@@H](NC(=O)OC)C(C)(C)C)cc1)Cc1ccc(NC(=O)[C@@H]2CCCN2C(=O)[C@@H](NC(=O)OC)C(C)(C)C)cc1 [Example 32, dimethyl ([(2-methoxyethyl)imino]bis{methanediylbenzene-4,1-diylcarbamoyl(2S)pyrrolidine-2,1-diyl[(2S)-3,3-dimethyl-1-oxobutane-1,2-diyl]})biscarbamate], COC(=O)N[C@H](C(=O)N1CCC[C@H]1C(=O)Nc1ccc(CN(Cc2ccc(NC(=O)[C@@H]3CCCN3C(=O)[C@@H](NC(=O)OC)C(C)C)cc2)C(C)C)cc1)C(C)C [Example 24, dimethyl ([(1-methylethyl)imino]bis{methanediylbenzene-4,1-diylcarbamoyl(2S)pyrrolidine-2,1-diyl[(2S)-3-methyl-1-oxobutane-1,2-diyl]})biscarbamate] is lower in EC50: 100 to 250 nM for the first, 1 to 10 nM for the second.

First: CC[C@H](C)[C@H](NC(=O)OC(C)(C)C)C(=O)N1CCC[C@H]1C(=O)Nc1ccc(CN(Cc2ccc(NC(=O)[C@@H]3CCCN3C(=O)[C@@H](NC(=O)OC(C)(C)C)[C@@H](C)CC)cc2)c2ccccc2)cc1 [Example 41, di-tert-butyl[(phenylimino)bis{methanediylbenzene-4,1-diylcarbamoyl(2S)pyrrolidine-2,1-diyl[(2S,3S)-3-methyl-1-oxopentane-1,2-diyl]}]biscarbamate]
Second: CC[C@@H](C)[C@H](NC(=O)OC)C(=O)N1CCC[C@H]1C(=O)Nc1ccc(CN(Cc2ccc(NC(=O)[C@@H]3CCCN3C(=O)[C@@H](NC(=O)OC)[C@H](C)CC)cc2)c2ccccc2)cc1 [Example 50, dimethyl[(phenylimino)bis{methanediylbenzene-4,1-diylcarbamoyl(2S)pyrrolidine-2,1-diyl[(2S,3R)-3-methyl-1-oxopentane-1,2-diyl]}]biscarbamate]
The EC50 of the first is higher: 10 to 100 nM for the first, < 1 nM for the second.

COC(=O)N[C@H](C(=O)N1CCC[C@H]1C(=O)Nc1ccc(CN(Cc2ccc(NC(=O)[C@@H]3CCCN3C(=O)[C@H](NC(=O)[C@H]3CCCO3)c3ccccc3)cc2)c2ccccc2)cc1)C(C)(C)C [Example 88, N-(methoxycarbonyl)-3-methyl-L-valyl-N-[4-({phenyl[4-({1-[(2R)-2-phenyl-2-{[(2R)-tetrahydrofuran-2-ylcarbonyl]amino}acetyl]-L-prolyl}amino)benzyl]amino}methyl)phenyl]-L-prolinamide] and COC(=O)N[C@H](C(=O)N1CCC[C@H]1C(=O)Nc1ccc(CN(Cc2ccc(NC(=O)[C@@H]3CCCN3C(=O)[C@@H](NC(=O)OC)c3ccccc3)cc2)c2ccccc2)cc1)c1ccccc1 [Example 11, Dimethyl (1S,1′S)-2,2′-((2S,2′S)-2,2′-(4,4′-(phenylazanediyl)bis(methylene)bis(4,1-phenylene)bis(azanediyl))bis(oxomethylene)bis(pyrrolidine-2,1-diyl))bis(2-oxo-1-phenylethane-2,1-diyl)dicarbamate] cannot be ordered by EC50: < 1 nM for the first, < 1 nM for the second.

First: COC(=O)N[C@H](C(=O)N1C[C@@H](O)C[C@H]1C(=O)Nc1ccc(CN(Cc2ccc(NC(=O)[C@@H]3C[C@H](O)CN3C(=O)[C@@H](NC(=O)OC)C(C)(C)C)cc2)c2ccc(F)cc2)cc1)C(C)(C)C [Example 136]
Second: COC(=O)N[C@H](C)C(=O)N1CCC[C@H]1C(=O)Nc1ccc(CN(Cc2ccc(NC(=O)[C@@H]3CCCN3C(=O)[C@@H](C)NC(=O)OC)cc2)c2ccc(F)cc2)cc1 [Example 16]
The EC50 of the first is lower: < 1 nM for the first, 10 to 100 nM for the second. The first is the more potent here.

In the case of CC(C)C(C(=O)N1CCC[C@H]1C(=O)Nc1ccc(CN(Cc2ccc(NC(=O)[C@@H]3CCCN3C(=O)C(c3ccccc3)C(C)C)cc2)c2ccc(F)cc2)cc1)c1ccccc1 (stereo partly drawn) [Example 108, (2S,2′S)-N,N′-{[(4-fluorophenyl)imino]bis(methanediylbenzene-4,1-diyl)}bis[1-(3-methyl-2-phenylbutanoyl)pyrrolidine-2-carboxamide]], the EC50 is reported as 1 to 10 nM.

Reference: patent US9278922B2 (ABBVIE INC., priority 2009, dated 2016)
